How the values were obtained:
[1] = system: N. gonorrhoeae FA1090E-5 (GyrA^D90N/ParC^D86N); test: MIC by agar dilution, GyrA^D90N/ParC^D86N strain; type: cell-based, Neisseria gonorrhoeae
Description: This strain was designated FA1090E-5 (GyrA^D90N/ParC^D86N).
Minimum inhibitory concentration (MIC) of test compounds was determined by an agar dilution method, the reference testing method for N. gonorrhoeae according to the standards of the Clinical and Laboratory Standards Institute and the CDC.

[2] = molecular target: T1, WT N. gonorrhoeae gyrase (Neisseria gonorrhoeae, UniProt P48371); test: DNA cleavage assay, WT gyrase; type: biochemical
T1 construct: His; made in house
T1 sequence (P48371 whole entry): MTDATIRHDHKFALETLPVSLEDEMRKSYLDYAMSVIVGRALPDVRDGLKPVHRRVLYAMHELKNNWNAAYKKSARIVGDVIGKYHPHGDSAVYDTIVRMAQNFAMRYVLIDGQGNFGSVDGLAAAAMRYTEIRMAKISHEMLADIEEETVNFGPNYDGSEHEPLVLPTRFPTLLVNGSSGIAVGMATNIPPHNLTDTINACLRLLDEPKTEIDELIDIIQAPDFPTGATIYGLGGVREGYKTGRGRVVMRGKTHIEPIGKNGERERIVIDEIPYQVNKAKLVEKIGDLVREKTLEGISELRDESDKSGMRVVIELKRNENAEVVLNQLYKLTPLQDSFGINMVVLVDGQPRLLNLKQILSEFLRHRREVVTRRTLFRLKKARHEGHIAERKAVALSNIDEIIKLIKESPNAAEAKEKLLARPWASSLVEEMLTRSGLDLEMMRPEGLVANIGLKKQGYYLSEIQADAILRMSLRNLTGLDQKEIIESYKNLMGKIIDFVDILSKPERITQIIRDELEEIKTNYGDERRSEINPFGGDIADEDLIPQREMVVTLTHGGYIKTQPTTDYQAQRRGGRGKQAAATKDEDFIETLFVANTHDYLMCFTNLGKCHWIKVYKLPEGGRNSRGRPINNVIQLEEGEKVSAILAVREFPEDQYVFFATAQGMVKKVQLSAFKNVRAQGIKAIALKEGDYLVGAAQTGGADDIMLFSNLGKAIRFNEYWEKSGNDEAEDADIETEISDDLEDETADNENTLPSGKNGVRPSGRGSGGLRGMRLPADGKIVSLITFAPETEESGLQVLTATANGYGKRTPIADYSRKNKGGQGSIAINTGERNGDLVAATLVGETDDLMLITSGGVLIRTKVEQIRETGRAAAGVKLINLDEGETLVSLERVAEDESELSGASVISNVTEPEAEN
T1 sequence (P22118 whole entry partner): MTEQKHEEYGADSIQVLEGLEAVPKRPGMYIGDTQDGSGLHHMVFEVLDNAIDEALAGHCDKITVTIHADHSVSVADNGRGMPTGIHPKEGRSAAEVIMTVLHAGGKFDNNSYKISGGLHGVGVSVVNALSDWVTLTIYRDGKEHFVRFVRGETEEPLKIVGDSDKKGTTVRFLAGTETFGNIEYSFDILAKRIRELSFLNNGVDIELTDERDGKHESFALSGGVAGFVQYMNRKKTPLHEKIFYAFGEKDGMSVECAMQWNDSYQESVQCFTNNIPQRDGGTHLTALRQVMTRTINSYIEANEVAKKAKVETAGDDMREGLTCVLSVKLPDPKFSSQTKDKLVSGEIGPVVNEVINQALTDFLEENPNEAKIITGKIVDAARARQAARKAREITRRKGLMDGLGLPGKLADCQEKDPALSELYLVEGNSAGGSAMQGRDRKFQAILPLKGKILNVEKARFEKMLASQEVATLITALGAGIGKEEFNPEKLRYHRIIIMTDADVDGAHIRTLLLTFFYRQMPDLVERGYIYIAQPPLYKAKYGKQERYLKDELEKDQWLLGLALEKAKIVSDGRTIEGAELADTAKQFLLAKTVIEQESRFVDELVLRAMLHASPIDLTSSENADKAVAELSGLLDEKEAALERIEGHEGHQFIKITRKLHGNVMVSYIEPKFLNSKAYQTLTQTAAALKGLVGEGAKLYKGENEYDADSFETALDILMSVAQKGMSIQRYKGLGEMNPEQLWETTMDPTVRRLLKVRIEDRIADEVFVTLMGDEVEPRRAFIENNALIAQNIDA
Description: (§1) Some experiments replaced MgCl2 with an equivalent concentration of CaCl2 (10 mM), or 1.5 mM ATP was added to assay mixtures.
(§2) Reactions were incubated at 37 °C for 30 min with WT and mutant (GyrA^D90N, GyrA^A92T, GyrA^S91F, GyrA^D95G, or GyrA^S91F/D95G) N. gonorrhoeae gyrase, 10 min with WT N. gonorrhoeae topoisomerase IV, and 20 min with mutant (ParC^D86N, ParC^S88P, ParC^S87N, or ParC^E91G) N. gonorrhoeae topoisomerase IV. Enzyme-DNA cleavage complexes were trapped by adding 2 μL of 5% SDS followed by 2 μL of 250 mM EDTA (pH 8.0). Proteinase K was added (2 μL of a 0.8 mg/mL solution), and reaction mixtures were incubated at 45 °C for 30 min to digest the enzyme. Samples were mixed with 2 μL of loading buffer and heated at 45 °C for 2 min prior to electrophoresis in 1% agarose gels in 40 mM Tris-acetate (pH 8.3), and 2 mM EDTA containing 0.5 μg/mL ethidium bromide. DNA bands were visualized by midrange ultraviolet light and quantified using an Alpha Innotech digital imaging system (Protein Simple). Single-stranded DNA cleavage was monitored by the conversion of negatively supercoiled to nicked plasmid molecules.

[3] = molecular target: T2, N. gonorrhoeae gyrase GyrA^A92T (Neisseria gonorrhoeae, UniProt P48371, A92T); test: DNA cleavage assay, GyrA^A92T gyrase; type: biochemical
T2 construct: His; made in house
T2 sequence (P48371 whole entry A92T): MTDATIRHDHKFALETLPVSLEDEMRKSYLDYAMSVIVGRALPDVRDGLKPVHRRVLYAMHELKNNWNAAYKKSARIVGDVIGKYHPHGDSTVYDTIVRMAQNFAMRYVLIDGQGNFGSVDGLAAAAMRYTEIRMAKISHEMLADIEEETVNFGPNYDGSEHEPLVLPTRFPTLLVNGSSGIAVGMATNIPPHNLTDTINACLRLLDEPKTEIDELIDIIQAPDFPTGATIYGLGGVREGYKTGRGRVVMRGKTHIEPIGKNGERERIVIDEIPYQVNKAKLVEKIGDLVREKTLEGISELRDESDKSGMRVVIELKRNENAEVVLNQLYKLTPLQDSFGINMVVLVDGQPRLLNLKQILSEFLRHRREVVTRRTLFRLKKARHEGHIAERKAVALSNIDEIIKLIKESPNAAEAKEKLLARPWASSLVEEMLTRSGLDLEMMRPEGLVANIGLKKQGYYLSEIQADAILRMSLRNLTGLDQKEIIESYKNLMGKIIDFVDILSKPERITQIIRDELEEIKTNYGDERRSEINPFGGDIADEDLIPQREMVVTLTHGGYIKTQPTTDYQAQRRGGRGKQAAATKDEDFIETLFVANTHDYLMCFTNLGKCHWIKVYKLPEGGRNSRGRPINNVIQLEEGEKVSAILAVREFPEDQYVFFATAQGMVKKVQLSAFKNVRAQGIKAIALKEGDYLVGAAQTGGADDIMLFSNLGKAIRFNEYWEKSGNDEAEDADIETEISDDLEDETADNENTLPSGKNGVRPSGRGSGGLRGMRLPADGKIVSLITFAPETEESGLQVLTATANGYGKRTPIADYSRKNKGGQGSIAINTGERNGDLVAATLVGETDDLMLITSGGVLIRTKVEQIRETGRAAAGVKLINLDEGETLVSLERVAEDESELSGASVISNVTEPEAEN
T2 sequence (P22118 whole entry partner): as the sequence (P22118 whole entry partner) above
Description: as §1, §2

[4] = molecular target: T3, N. gonorrhoeae gyrase GyrA^S91F/D95G (Neisseria gonorrhoeae, UniProt P48371, D95G/S91F); test: DNA cleavage assay, GyrA^S91F/D95G gyrase; type: biochemical
T3 construct: His; made in house
Description: as §1, §2

[5] = molecular target: T4, N. gonorrhoeae topoisomerase IV ParC^D86N (Neisseria gonorrhoeae, UniProt P48374, D86N); test: DNA cleavage assay, ParC^D86N topoisomerase IV; type: biochemical
T4 construct: His; made in house
T4 sequence (P48374 1-768 D86N): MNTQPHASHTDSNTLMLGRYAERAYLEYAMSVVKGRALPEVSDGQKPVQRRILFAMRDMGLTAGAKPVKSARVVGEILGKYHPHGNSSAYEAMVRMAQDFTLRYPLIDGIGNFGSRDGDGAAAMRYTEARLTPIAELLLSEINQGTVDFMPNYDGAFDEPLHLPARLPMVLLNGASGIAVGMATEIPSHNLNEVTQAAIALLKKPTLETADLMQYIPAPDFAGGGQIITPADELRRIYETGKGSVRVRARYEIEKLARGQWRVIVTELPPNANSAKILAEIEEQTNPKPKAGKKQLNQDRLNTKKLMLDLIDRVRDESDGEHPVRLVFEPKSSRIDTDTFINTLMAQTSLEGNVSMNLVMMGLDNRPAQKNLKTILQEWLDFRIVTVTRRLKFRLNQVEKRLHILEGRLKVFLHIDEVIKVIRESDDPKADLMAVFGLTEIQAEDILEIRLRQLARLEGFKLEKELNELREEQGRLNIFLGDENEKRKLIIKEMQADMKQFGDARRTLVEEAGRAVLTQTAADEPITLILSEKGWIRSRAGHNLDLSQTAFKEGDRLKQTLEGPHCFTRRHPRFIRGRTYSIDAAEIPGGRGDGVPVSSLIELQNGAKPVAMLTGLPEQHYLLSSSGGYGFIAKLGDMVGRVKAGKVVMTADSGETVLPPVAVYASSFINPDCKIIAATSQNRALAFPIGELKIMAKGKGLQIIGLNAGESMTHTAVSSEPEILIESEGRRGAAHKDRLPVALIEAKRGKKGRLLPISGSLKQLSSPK
Description: as §1, §2

O=c1ccc2ncc(=O)n3c2n1C[C@H]3CN1CCC(NCc2cc3c(cn2)OCCC3)CC1 [gepotidacin]
MIC ([1]; Neisseria gonorrhoeae): > 64 µg/mL
fold-change in MIC from WT/WT parental strain ([1]; strain FA1090E-5 vs FA1090E): > 128 fold
effect of ATP on potency and maximal DNA cleavage ([2]; 1.5 mM ATP): little effect
effect on double-stranded DNA scission ([2]; Mg2+ replaced with Ca2+): little effect
EC50 ([2]; Mg2+, no ATP, read-out: CC50, single-stranded DNA cleavage): 900 ± 300 nM
Adj-Max Cleavage, single-stranded DNA breaks ([2]; adjusted for baseline cleavage): ~17.1%
additional enhancement of double-stranded DNA breaks above baseline ([2]; up to 200 μM gepotidacin, up to 180 min): not observed
Adj-Max Cleavage, single-stranded DNA breaks [3]: 4.9%
EC50 ([3]; GyrA A92T gyrase, read-out: CC50, single-stranded DNA cleavage): 500 nM
fold decrease of adjusted maximal DNA cleavage vs WT ([3]; GyrA A92T vs WT): ~3.5 fold
Adj-Max Cleavage, single-stranded DNA breaks [4]: 3.9%
EC50 ([4]; GyrA S91F/D95G gyrase, read-out: CC50, single-stranded DNA cleavage): 800 nM
fold decrease of adjusted maximal DNA cleavage vs WT ([4]; GyrA S91F/D95G vs WT): ~4.4 fold
Adj-Max Cleavage, single-stranded DNA breaks [5]: 9.3%
EC50 ([5]; ParC D86N topoisomerase IV, read-out: CC50, single-stranded DNA cleavage): > 50000 nM

— paper PMC12624743 (ACS Infectious Diseases, 2025)
